In patent US12590108B2, “Boracic acid compound” (Phaeno Therapeutics Co., Ltd, priority 2020, dated 2026):
Where two headings read alike, the source gives them in different places.

How the values were obtained:
[1] = system: Klebsiella pneumoniae ATCC BAA-1705; assay: Mouse thigh muscle infection model, bacterial load; assay type: in vivo, CD-1 female mice; details: endpoint 12 h
Procedure: 36 CD-1 female mice were divided into 12 cages with 3 […] in each cage. The day of infection was denoted as day 0.
Immunosuppressant cyclophosphamide at 150 mg/kg was injected intraperitoneally on day −4 and immunosuppressant cyclophosphamide at 100 mg/kg was injected intraperitoneally on day −1 to induce immunodeficient mice.
On day −1, the strain Klebsiella pneumoniae ATCC BAA-1705 was resuscitated on an MHA plate. Resuscitated colonies were picked and dissolved in sterile physiological saline to prepare a bacterial solution with a concentration of 5.6E+07 CFU/mL for thigh muscle infection in mice. The initial time of infection was denoted as 0 h, and 100 μL of the bacterial solution was injected into each mouse at the thigh muscle at 0 h, that is, the inoculation amount was 5.6E+06 CFU/mouse. 2 h after infection, dosing was performed according to the experimental scheme. The specific experimental scheme was as follows (see Table 4): • (1) 2 h after infection: for the 1st cage of mice, at the endpoint, thigh muscle tissue was taken and placed in 10 mL of sterile physiological saline, the tissue was homogenized by a homogenizer, and the homogenate was diluted in a gradient and spotted in a plate, with two replicates for each mouse. • (2) 2 h after infection: the 2nd to 12th cages were respectively treated at 10 mL/kg by volume according to the body weight of the mice, the 2nd cage of mice were given a vehicle by intravenous injection every 2 h, and the endpoint was 12 h; the 3rd cage of mice were given 100 mg/kg of meropenem by intravenous injection every 2 h, and the endpoint was 12 h; the 4th cage of mice were given 100 mg/kg of meropenem and 20 mg/kg of QPX7728 by intravenous injection every 2 h, and the endpoint was 12 h; the 5th cage of mice were given 100 mg/kg of meropenem and 100 mg/kg of compound 15 by intravenous injection every 2 h, and the endpoint was 12 h; the 6th cage of mice were given 100 mg/kg of meropenem and 20 mg/kg of compound 15 by intravenous injection every 2 h, and the endpoint was 12 h; the 7th cage of mice were given 100 mg/kg of meropenem and 4 mg/kg of compound 15 by intravenous injection every 2 h, and the endpoint was 12 h; the 8th cage of mice were given 100 mg/kg of cefepime by intravenous injection every 2 h, and the endpoint was 12 h; the 9th cage of mice were given 100 mg/kg of cefepime and 20 mg/kg of QPX7728 by intravenous injection every 2 h, and the endpoint was 12 h; the 10th cage of mice were given 100 mg/kg of cefepime and 100 mg/kg of compound 15 by intravenous injection every 2 h, and the endpoint was 12 h; the 11th cage of mice were given 100 mg/kg of cefepime and 20 mg/kg of compound 15 by intravenous injection every 2 h, and the endpoint was 12 h; and the 12th cage of mice were given 100 mg/kg of cefepime and 4 mg/kg of compound 15 by intravenous injection every 2 h, and the endpoint was 12 h. At the endpoint of 12 h, thigh muscle tissue was taken and placed in 10 mL of sterile physiological saline, the tissue was homogenized by a homogenizer, and the homogenate was diluted in a gradient and spotted in a plate, with two replicates for each mouse. The bacterial load in the thigh muscle tissue of the mice was counted, and the experiment was summarized as follows (see Table 5): […]

[2] = system: Escherichia coli ARLG-2829 (NDM-5, OXA-1); assay: MIC shift, liquid microdilution, meropenem fixed at 4 μg/mL; assay type: cell-based
Procedure: (§1) The test compound was tested for minimum inhibitory concentration against three strains of Klebsiella pneumoniae ATCC BAA-1705 (KPC-2), ATCC BAA-2470 (NDM-1), and ARLG-1196 (CTM-1 group, SHV, NDM, TEM), and one strain of Escherichia coli ARLG-2829 (NDM-5, OXA-1). According to the requirements of the Institute of Clinical And Laboratory Standard (CLSI), the minimum inhibitory concentration (MIC) of each drug combination was determined by liquid microdilution method under the premise of fixing the concentration of meropenem at 4 μg/mL.
(§2) Preparation of compound mother plate: On the day of the experiment, the compound to be tested (the final concentration was 0.3125 to 20 μg/mL) and meropenem (the final concentration ranged from 1 to 64 μg/mL) were dissolved in a corresponding solvent (sterile ddH2O or DMSO) to form 100× mother liquors with the highest test concentration, and the compound to be tested and meropenem were then subjected to 2-fold series gradient dilution in a V-bottom 96-well plate to obtain 100× working solutions with the final concentration.
(§3) Preparation of inoculation solution: Fresh bacterial clones were picked from an overnight Mueller Hinton II Agar medium (MHA, Cat. No. 211438, BD BBLTM) plate, suspended in sterilized physiological saline, and adjusted to a concentration of 1×10^8 CFU/mL, and the suspension was further diluted to 5-10^5 CFU/mL with Cation-Adjusted Mueller Hinton II Broth (MHB, Catalog #212332, BD BBLTM).
(§4) Detection of minimum inhibitory concentration (MIC): 1 μL of the compound to be tested and the meropenem working solution were transferred to the corresponding wells to be tested in a round-bottomed 96-well plate (Catalog #3788, Corning), and 98 μL of the inoculation solution was added to the round-bottomed 96-well plate containing drugs, which was an MIC test plate; and after the plate was inverted and cultured at 37° C. for 20-24 h, the MIC value was read, and the minimum inhibitory concentration for inhibiting bacterial growth was defined as MIC.

[3] = system: Klebsiella pneumoniae ATCC BAA-2470 (NDM-1); assay: as above; assay type: cell-based; details: K. pneumoniae ATCC BAA-2470, NDM-1
Procedure: as §1, §2, §3, §4

[4] = system: Klebsiella pneumoniae ATCC BAA-1705 (KPC-2); assay: as above; assay type: cell-based; details: K. pneumoniae ATCC BAA-1705, KPC-2
Procedure: as §1, §2, §3, §4

[5] = system: Klebsiella pneumoniae ARLG-1196 (CTM-1 group, SHV, NDM, TEM); assay: as above; assay type: cell-based
Procedure: as §1, §2, §3, §4

[6] = compound + meropenem fixed at 4 μg/mL

| MIC ([2]; compound + meropenem fixed at 4 μg/mL, E. coli ARLG-2829 (urine clinical isolate), NDM-5, OXA-1) [µg/mL] | MIC [3, 6] [µg/mL] | MIC [4, 6] [µg/mL] | MIC ([5]; compound + meropenem fixed at 4 μg/mL, K. pneumoniae ARLG-1196, CTM-1 and isoforms thereof, SHV, NDM, TEM) [µg/mL] | Compound | Average CFU in mice (thigh muscle tissue) ([1]; cefepime 100 mg/kg + inhibitor 4 mg/kg i.v. q2h) [CFU/mouse] | Average CFU in mice (thigh muscle tissue) ([1]; cefepime 100 mg/kg + inhibitor 20 mg/kg i.v. q2h) [CFU/mouse] | Average CFU in mice (thigh muscle tissue) ([1]; cefepime 100 mg/kg + inhibitor 100 mg/kg i.v. q2h) [CFU/mouse] | Average CFU in mice (thigh muscle tissue) ([1]; meropenem 100 mg/kg + inhibitor 4 mg/kg i.v. q2h) [CFU/mouse] | Average CFU in mice (thigh muscle tissue) ([1]; meropenem 100 mg/kg + inhibitor 20 mg/kg i.v. q2h) [CFU/mouse] | Average CFU in mice (thigh muscle tissue) ([1]; meropenem 100 mg/kg + inhibitor 100 mg/kg i.v. q2h) [CFU/mouse] | Average CFU in mice (thigh muscle tissue) ([1]; antibiotic alone 100 mg/kg i.v. q2h) [CFU/mouse] | MIC ([2]; Escherichia coli, meropenem alone, E. coli ARLG-2829, read-out: MIC) [µg/mL] | MIC ([3]; Klebsiella pneumoniae, ATCCBAA2470, meropenem alone, read-out: MIC) [µg/mL] | MIC ([4]; Klebsiella pneumoniae, ATCCBAA1705, meropenem alone, read-out: MIC) [µg/mL] | MIC ([5]; Klebsiella pneumoniae, meropenem alone, K. pneumoniae ARLG-1196, read-out: MIC) [µg/mL] |
| --- | --- | --- | --- | --- | --- | --- | --- | --- | --- | --- | --- | --- | --- | --- | --- |
| 1.25 | 0.625 | ≤0.3125 | 0.625 | CCOc1ccc2c(c1C(=O)O)O[B-](O)(O)CO2 [Compound 15] | 5.68E+06 | 2.06E+06 | 1.24E+06 | 1.65E+07 | 4.08E+06 | 2.02E+06 |  |  |  |  |  |
|  |  |  |  | C[C@@H](O)[C@H]1C(=O)N2C(C(=O)O)=C(S[C@@H]3CN[C@H](C(=O)N(C)C)C3)[C@H](C)[C@H]12 [Meropenem, meropenem, reference compound] |  |  |  |  |  |  | 4.83E+08 | > 64 | 64 | 32 | 64 |
